Target: BTK (Homo sapiens, UniProt Q06187)
Experiment: biochemical
Conditions: read-out: BTK inhibition (%), 0.75 uM BTK, […] probe 3l, 15 min preincubation

Sequence of BTK (Q06187 402-655 limits assumed): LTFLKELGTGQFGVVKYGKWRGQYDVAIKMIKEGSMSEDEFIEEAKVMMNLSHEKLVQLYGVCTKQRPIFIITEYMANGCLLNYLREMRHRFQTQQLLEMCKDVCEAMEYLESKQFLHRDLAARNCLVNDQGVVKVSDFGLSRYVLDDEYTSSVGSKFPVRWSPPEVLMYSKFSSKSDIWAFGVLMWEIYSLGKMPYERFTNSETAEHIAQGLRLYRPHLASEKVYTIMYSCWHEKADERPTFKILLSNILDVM

Row | inhibition at 10 µM [%] | SMILES
1 | 18.5 | COc1ccc(C(NC(=O)c2cnc(-c3cccnn3)[nH]c2=O)c2ccc(OC)cc2)cc1 [PCM-0215803]
2 | 73.8 | Cc1cc(C(=O)Nc2nc3cccc(Cl)c3n2[C@@H]2CCCCN(C(=O)/C=C/CN(C)C)C2)ccn1 [PCM-0215804]
3 | 38.6 | Cc1cc(O)c(-c2ccc([C@@H](C)CN(C)C)cc2)c2c1[nH]c(=O)c1sccc12 [PCM-0215805]
4 | 74.1 | O=[N+]([O-])c1ccc(Nc2ccccc2-c2ccccc2)c2nonc12 [PCM-0215806]
5 | 22.1 | C=CC(=O)N[C@H]1CCOC[C@H]1Nc1ncc2cc(-c3c(Cl)c(OC)cc(OC)c3Cl)ccc2n1 [PCM-0215807]
6 | 2.3 | NS(=O)(=O)c1ccc(NC(=S)N2CCN(C/C=C/c3ccccc3)CC2)cc1 [PCM-0215808]
7 | 4.6 | NC(=O)c1cc(F)cc2c1C(=O)N(C1CCN(C3CCC(F)(F)CC3)CC1)C2 [PCM-0215809]
8 | 19.3 | CC1=C(C(=O)Nc2ccc3[nH]ncc3c2)C(c2ccc(F)cc2)NC(=O)N1 (centres unmarked) [PCM-0215810]
9 | -10.3 | CONC(=O)c1ccccc1Nc1cc(Nc2cc(C)nn2C(C)C)ncc1Cl [PCM-0215811]
10 | 57.9 | COCCCc1sc(-c2ccccc2)nc1C(=O)Nc1ccccc1-c1nc2cc(CN3CCCC3)cnc2s1 [PCM-0215812]
11 | -6.9 | CS(=O)(=O)c1ccc(-c2cnc(NCc3ccco3)n3cnnc23)cc1 [PCM-0215813]
12 | 82.8 | Cc1cccc(Nc2nc(N[C@@H]3CCCC[C@@H]3N)ncc2C(N)=O)c1 [PCM-0215814]
13 | 86.9 | COc1ccc2c(c1)[C@]1(C[C@H]1c1ccc3c(/C=C/c4ccc(CN5C[C@@H](C)O[C@@H](C)C5)cc4)n[nH]c3c1)C(=O)N2 [PCM-0215815]
14 | -5.5 | NC(=O)[C@H](CCCN=C(N)CCl)NC(=O)c1ccccc1 [PCM-0215816]
15 | -22.4 | COc1ccc(S(=O)(=O)NCc2ccc(C(=O)NCCc3ccc(Cl)cn3)cc2)cc1 [PCM-0215817]
16 | 36.3 | O=C(NC1(c2ccccc2)CC1)c1c(CN2CCC(N3CCCCC3)CC2)c(-c2cccc(C(F)(F)F)c2)nc2cc(Br)ccc12 [PCM-0215818]
17 | -10 | NC(=O)/C(=C/n1cnc(-c2cc(C(F)(F)F)cc(C(F)(F)F)c2)n1)c1cncnc1 [PCM-0215821]
18 | -3.4 | CC[C@H](C)[C@H](N)C(=O)N[C@H]1CSSC[C@@H](C(=O)N[C@H](C(N)=O)[C@@H](C)O)NC(=O)[C@H](CCCN=C(N)N)NC(=O)[C@H](Cc2cnc[nH]2)NC(=O)[C@H](Cc2cnc[nH]2)NC(=O)CNC(=O)[C@H](Cc2c[nH]c3ccccc23)NC(=O)[C@H](CC(=O)O)NC(=O)[C@H](CCC(N)=O)NC(=O)[C@H](C(C)C)NC(=O)[C@H](C(C)C)NC1=O [PCM-0215822]
19 | -9.3 | C=CC(=O)N1CC(N2CCN(C(=O)CNc3cc(C4(C)CC4)c(Cl)cc3O)CC2)C1 [PCM-0215823]
20 | 2.6 | CN[C@@H](C)C(=O)N[C@H](C(=O)N1CCC[C@H]1C(=O)N[C@H]1c2ccccc2C[C@H]1OCC#CC#CCO[C@@H]1Cc2ccccc2[C@@H]1NC(=O)[C@@H]1CCCN1C(=O)[C@@H](NC(=O)[C@H](C)NC)C1CCCCC1)C1CCCCC1 [PCM-0215824]
21 | 2.8 | CC[C@@H](N)CNc1ccnc(-c2cc(-c3cnn(C)c3)ccc2O)n1 [PCM-0215825]
22 | -1.4 | O=c1nc(N2CCOCC2)oc2c(-c3cccc4c3sc3ccccc34)cccc12 [PCM-0215826]
23 | -7.7 | CC(=O)N[C@@H](CC(=O)O)C(=O)N[C@@H](CCC(=O)O)C(=O)N[C@H](C(=O)N[C@H](C=O)CC(=O)O)C(C)C [PCM-0215827]

Row | inhibition at 10 µM [%] | SMILES
24 | 106 | CC(C)n1nc(-c2ccc(NC(=O)Nc3cc(C(F)(F)F)ccc3F)cc2)c2c(N)ncnc21 [PCM-0215828]
25 | -17.8 | Cc1cc(C)cc(Oc2ccc(CNC(=O)[C@H](C)N)cc2C)c1 [PCM-0215829]
26 | 12.4 | COc1cc2nccc(Oc3ccc(NC(=O)c4cn(C(C)C)c(=O)n(-c5ccc(F)cc5)c4=O)cc3F)c2cc1OC [PCM-0215831]
27 | -8.3 | CC(C)n1ncnc1-c1cn2c(n1)-c1ccc(O[C@@H](C)C(N)=O)cc1OCC2 [PCM-0215832]
28 | 4.6 | CS(=O)(=O)n1cc2c(n1)CN([C@H]1CO[C@H](c3cc(F)ccc3F)[C@@H](N)C1)C2 [PCM-0215833]
29 | -30.3 | N#Cc1ccc2ncnc(NCCc3ccccc3)c2c1 [PCM-0215834]
30 | -4.1 | C=C(Cc1ccccc1Cl)C(=O)OCC [PCM-0215835]
31 | -30.9 | CC(C)(CNC(=O)c1cccc(-c2noc(C(F)(F)F)n2)c1)c1coc(-c2ccccc2)n1 [PCM-0215836]
32 | 6.2 | Cc1[nH]nc2ncc(C(=O)N3CCC[C@H]3c3ccc(Cl)cc3)cc12 [PCM-0215837]
33 | 81.4 | COCCNCc1ccc(-c2cc3nccc(Oc4ccc(NC(=O)C5(C(=O)Nc6ccc(F)cc6)CC5)cc4F)c3s2)nc1 [PCM-0215838]
34 | -1.5 | CCCCS(=O)(=O)N[C@@H](Cc1ccc(OCCCCC2CCNCC2)cc1)C(=O)O [PCM-0215839]
35 | -3.1 | O=C1OC(COc2ccccc2[N+](=O)[O-])CC1Cc1ccccc1 (centres unmarked) [PCM-0215840]
36 | 13.1 | O=C(O)c1cc(C(=O)O)c(C(=O)N(Cc2cccc(Oc3ccccc3)c2)[C@H]2CCCc3ccccc32)cc1C(=O)O [PCM-0215841]
37 | 6.2 | CN1C(=O)[C@@H](NC(=O)c2n[nH]c(Cc3ccccc3)n2)COc2ccccc21 [PCM-0215843]
38 | 29 | CCN(CC)CCNC(=O)c1c(C)[nH]c(/C=C2\C(=O)Nc3ccc(-c4csc(-c5ccccc5)n4)cc32)c1C [PCM-0215844]
39 | 23.4 | O=c1cc(N2CCOCC2)oc2c(-c3ccc4c(c3)OCCO4)csc12 [PCM-0215845]
40 | 20 | C[C@H](NC(=O)c1c(N)nn2cccnc12)c1cc2cccc(C#Cc3cnn(C)c3)c2c(=O)n1-c1ccccc1 [PCM-0215846]
41 | -13.1 | CC(C)n1nccc1-c1ncccc1COc1cccc(O)c1C=O [PCM-0215847]
42 | -0.8 | O=C(NCCN1CCOCC1)Nc1ccc(C(=O)/C=C/c2cccc(N3CCOCC3)n2)cc1 [PCM-0215849]
43 | 5.5 | CC(C)(CO)n1cc(C(=O)c2cncc(NC(=O)Cc3ccc(Cl)cn3)c2)c2cnc(N)nc21 [PCM-0215853]
44 | 0.8 | O=C(O)CCn1c(O)c(C2=c3cc(Cl)ccc3=NC2=O)sc1=S [PCM-0215854]
45 | 5.4 | CCc1ccc(Cc2ccc3c(c2)[C@]2(OC3)O[C@H](CO)[C@@H](O)[C@H](O)[C@H]2O)cc1 [PCM-0215855]
46 | 21.4 | Nc1nc2cc(-c3ccc4ncc(C(=O)N5CCOCC5)n4c3)ccc2o1 [PCM-0215857]

Row | inhibition at 10 µM [%] | SMILES
47 | -8.5 | O=C(O)C(Cl)Cl [PCM-0215858]
48 | 53.1 | CC(C)NC(=O)C1CCC(n2c(NC(=O)c3ccc(F)cc3)nc3ccc(CN4CCC(C(C)(C)O)CC4)cc32)CC1 (centres unmarked) [PCM-0215859]
49 | 7.7 | NCCOc1ccc(Cl)cc1C(=O)Nc1ccc([N+](=O)[O-])cc1Cl [PCM-0215860]
50 | 12.4 | Cc1cc(Nc2cc(Cl)nc(Oc3ccc([N+](=O)[O-])cc3)n2)n[nH]1 [PCM-0215861]
51 | 1.5 | O=S(=O)(NC1CCCCC1)c1ccc2c(c1)C(=NO)c1cc(S(=O)(=O)NC3CCCCC3)ccc1-2 [PCM-0215862]
52 | 6.2 | C=CC(=O)N1CCN(CCCn2c(=O)c(-c3c(Cl)c(OC)cc(OC)c3Cl)cc3cnc(NC)nc32)CC1 [PCM-0215863]
53 | -3.9 | C[C@@H](Nc1nc(N[C@H](C)C(F)(F)F)nc(-c2cccc(Cl)n2)n1)C(F)(F)F [PCM-0215864]
54 | 6.2 | NC(=O)c1ccc(OCCCN2CC3CCCC3C2)cc1 (centres unmarked) [PCM-0215865]
55 | 73.8 | CCc1nc(C(N)=O)c(Nc2ccc(N3CCC(N4CCN(C)CC4)CC3)c(OC)c2)nc1NC1CCOCC1 [PCM-0215866]
56 | -17 | Cc1cc(C)nc(NC(=S)N2CCN(Cc3ccc(C(F)(F)F)cc3)CC2)c1 [PCM-0215867]
57 | -5.4 | Nc1ccc(F)cc1NC(=O)c1ccc(CNC(=O)/C=C/c2cccnc2)cc1 [PCM-0215868]
58 | 2.3 | CCCC(=O)NCCc1csc(-c2ccc(Cl)cc2)n1 [PCM-0215869]
59 | 1.5 | OC[C@H]1O[C@@H](c2ccc(F)c(Cc3cc4ccccc4s3)c2)[C@H](O)[C@@H](O)[C@@H]1O [PCM-0215870]
60 | 15.4 | c1cncc(-c2cn[nH]n2)c1 [PCM-0215871]
61 | -8.5 | Cc1cc(C)c(CN2CCc3c(Cl)cc(-c4c(C)noc4C)c(Cl)c3C2=O)c(=O)[nH]1 [PCM-0215872]
62 | 6.8 | Cc1ccc(NCCN(C)CCNc2ccnc3cc(Cl)ccc23)c2c(=O)c3ccccc3sc12 [PCM-0215874]
63 | 6.9 | Cn1nccc1Nc1nccc(-c2cc3c(s2)C(C)(C)N(CCN2CCOCC2)C3=O)n1 [PCM-0215875]
64 | -17.9 | C[N+](C)(C)CCOP(=O)(O)OP(=O)([O-])OC[C@H]1O[C@@H](n2ccc(N)nc2=O)[C@H](O)[C@@H]1O [PCM-0215877]
65 | 0.9 | C[N+](C)(C)CCOP(=O)([O-])OP(=O)(O)OC[C@H]1O[C@@H](n2ccc(N)nc2=O)[C@H](O)[C@@H]1O [PCM-0215877]
66 | 5.4 | Nc1nc(-c2ccco2)c2cnn(Cc3ccccc3F)c2n1 [PCM-0215878]
67 | 6.9 | COCCNC(=O)Nc1ccc2nc(-c3cccs3)c(-c3cccs3)nc2c1 [PCM-0215879]
68 | 11.9 | O=P(O)(O)OC(CO)CO [PCM-0215880]

Row | SMILES | inhibition at 10 µM [%]
69 | C[C@@H](N)C(=O)N[C@@H](CO)C(=O)N[C@H](C(=O)N[C@H](C(=O)N[C@H](C(=O)N[C@@H](CC(N)=O)C(=O)N[C@@H](Cc1ccc(O)cc1)C(=O)N[C@H](C(N)=O)[C@@H](C)O)[C@@H](C)O)[C@@H](C)O)[C@@H](C)O [PCM-0215819] | 11.1
70 | C=CC(=O)N1CC/C(=C\c2ccc(F)c([N+](=O)[O-])c2)C(=O)/C(=C/c2ccc(F)c([N+](=O)[O-])c2)C1 [PCM-0215820] | 31.7
71 | O=C(c1ccccc1O)c1[nH]c(Cl)c(Cl)c1-n1c(C(=O)c2ccccc2O)cc(Cl)c1Cl [PCM-0215850] | 117

— PMC8041284, “Tunable Methacrylamides for Covalent Ligand Directed Release Chemistry” (Journal of the American Chemical Society, 2021)
